Experimental data published in ChEMBL document CHEMBL1201862, “PubChem BioAssay data set” (2004).
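How tested: cells in 96-well plates exposed to compound for 48 hours at five concentrations. Here, GI50 denotes the concentration required for 50% inhibition of growth.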 The source made the active and inactive calls. Cut-off read from the data, not from the text of the source: active = GI50 up to about 1.1 µM and inactive = higher.

What was measured:
Test in all cases: DTP human tumour cell line panel, 48 h
CAKI-1 = test system: CAKI-1
CCRF-CEM = test system: CCRF-CEM
EKVX = test system: EKVX
HCC 2998 = test system: HCC 2998
HCT-116 = test system: HCT-116
HL-60 = test system: HL-60
HOP-62 = test system: HOP-62
LXFL 529 = test system: LXFL 529
Malme-3M = test system: Malme-3M
OVCAR-3 = test system: OVCAR-3
SF-539 = test system: SF-539
SK-MEL-5 = test system: SK-MEL-5
SNB-19 = test system: SNB-19
NCI-H522 = test system: NCI-H522
Hs-578T = test system: Hs-578T
MCF7 = test system: MCF7
MDA-MB-231 = test system: MDA-MB-231
MDA-MB-435 = test system: MDA-MB-435
NCI/ADR-RES = test system: NCI/ADR-RES
T47D = test system: T47D

| SMILES | GI50 (CAKI-1) | GI50 (CCRF-CEM) | GI50 (EKVX) | GI50 (HCC 2998) | GI50 (HCT-116) | GI50 (HL-60) | GI50 (HOP-62) | GI50 (LXFL 529) | GI50 (Malme-3M) | GI50 (OVCAR-3) | GI50 (SF-539) | GI50 (SK-MEL-5) | GI50 (SNB-19) | GI50 (NCI-H522) | GI50 (Hs-578T) | GI50 (MCF7) | GI50 (MDA-MB-231) | GI50 (MDA-MB-435) | GI50 (NCI/ADR-RES) | GI50 (T47D) |
| --- | --- | --- | --- | --- | --- | --- | --- | --- | --- | --- | --- | --- | --- | --- | --- | --- | --- | --- | --- | --- |
| Cc1ccc(/N=N/c2c(C)nn(-c3ccccc3)c2C)c(Br)c1 | > 100 µM (inactive) | 27 µM (inactive) | > 100 µM (inactive) | > 100 µM (inactive) | 41.3 µM (inactive) | 6.84 µM (inactive) | > 100 µM (inactive) | 95.3 µM (inactive) | > 100 µM (inactive) | > 100 µM (inactive) | > 100 µM (inactive) | 66.1 µM (inactive) | > 100 µM (inactive) |  |  |  |  |  |  |  |
| CCOC(=O)C1(Cc2ccc3ccccc3c2)CCCCCN1 (stereo not drawn) | 9.23 µM (inactive) |  | 69.5 µM (inactive) | 19.1 µM (inactive) |  | 18.8 µM (inactive) | 64.3 µM (inactive) | 34.1 µM (inactive) | 16.5 µM (inactive) | 45.3 µM (inactive) |  |  | 43.7 µM (inactive) |  |  |  |  |  |  |  |
| CC(=O)OC12/C(=N/O)CCCCCC1c1ccccc12 (stereo not drawn) |  | 26.4 µM (inactive) | 68.1 µM (inactive) |  | 84.7 µM (inactive) | 64.3 µM (inactive) | > 100 µM (inactive) | 66.8 µM (inactive) | > 100 µM (inactive) |  |  | > 100 µM (inactive) | > 100 µM (inactive) | 31.2 µM (inactive) |  |  |  |  |  |  |
| Oc1cc(O)c2c(-c3c(O)c(-c4ccc(O)c(O)c4)[o+]c4cc(O)cc(O)c34)c(O)c(-c3ccc(O)c(O)c3)[o+]c2c1 | 36.9 µM (inactive) | > 10 µM (inactive) | 28.7 µM (inactive) | 39.2 µM (inactive) | 48.8 µM (inactive) | > 10 µM (inactive) | 38.9 µM (inactive) | 55.5 µM (inactive) | 46 µM (inactive) | 20.7 µM (inactive) | 25.6 µM (inactive) | > 100 µM (inactive) | 36 µM (inactive) |  |  |  |  |  |  |  |
| Cc1cc(C(O)CCCc2ccccc2)cc(C)c1O (stereo not drawn) |  | 27.7 µM (inactive) | 20.5 µM (inactive) | 74.1 µM (inactive) |  | 16.6 µM (inactive) | 33.3 µM (inactive) | 47.5 µM (inactive) | 18.9 µM (inactive) | 31.1 µM (inactive) | 38.2 µM (inactive) | 22.5 µM (inactive) | 14.6 µM (inactive) | 27.4 µM (inactive) |  |  |  |  |  |  |
| COC1OC(COCc2ccc(Cl)cc2)C(OCc2ccc(Cl)cc2)C1N=[N+]=[N-] (stereo not drawn) | > 100 µM (inactive) |  | > 100 µM (inactive) | > 100 µM (inactive) | > 100 µM (inactive) |  |  | 95.5 µM (inactive) | > 100 µM (inactive) | 47.8 µM (inactive) |  | 44 µM (inactive) | > 100 µM (inactive) | 85.1 µM (inactive) |  |  |  |  |  |  |
| CCOC(=O)C1(C)CCCCC(=O)N1 (stereo not drawn) | > 100 µM (inactive) |  | > 100 µM (inactive) | > 100 µM (inactive) |  | > 100 µM (inactive) | > 100 µM (inactive) | > 100 µM (inactive) | > 100 µM (inactive) | > 100 µM (inactive) |  |  | > 100 µM (inactive) |  |  |  |  |  |  |  |
| CC1=C(C)C(=O)c2c(cc3ccccn23)C1=O |  | 27 µM (inactive) | 21.3 µM (inactive) | 15.5 µM (inactive) |  | 17.4 µM (inactive) |  | 15.3 µM (inactive) | 4.9 µM (inactive) | 14.6 µM (inactive) | 20 µM (inactive) | 10.4 µM (inactive) | 15.3 µM (inactive) |  |  |  |  |  |  |  |
| C/C(=C\CNc1ncnc2[nH]c(Cl)nc12)CO | > 100 µM (inactive) | > 100 µM (inactive) | > 100 µM (inactive) | > 100 µM (inactive) | > 100 µM (inactive) | > 100 µM (inactive) | > 100 µM (inactive) |  | > 100 µM (inactive) | > 100 µM (inactive) | > 100 µM (inactive) | > 100 µM (inactive) | > 100 µM (inactive) | > 100 µM (inactive) | > 100 µM (inactive) | > 100 µM (inactive) | > 100 µM (inactive) | > 100 µM (inactive) | > 100 µM (inactive) | > 100 µM (inactive) |
| CCCCCCCCCCCCCCCCc1c(O)nc(NC#N)nc1C(=O)OC |  | > 25 µM (inactive) | > 25 µM (inactive) | > 25 µM (inactive) | > 25 µM (inactive) | > 25 µM (inactive) | > 25 µM (inactive) | > 25 µM (inactive) | > 25 µM (inactive) | > 25 µM (inactive) | > 25 µM (inactive) |  | > 25 µM (inactive) | > 25 µM (inactive) |  |  |  |  |  |  |
| CCCCON1C[C@@H](O)C(O)[C@@H](O)C1 (stereo partly drawn) | > 100 µM (inactive) | > 100 µM (inactive) | > 100 µM (inactive) | > 100 µM (inactive) | > 100 µM (inactive) | > 100 µM (inactive) | > 100 µM (inactive) |  | > 100 µM (inactive) | > 100 µM (inactive) | > 100 µM (inactive) | > 100 µM (inactive) | > 100 µM (inactive) | > 100 µM (inactive) | > 100 µM (inactive) | > 100 µM (inactive) | > 100 µM (inactive) | > 100 µM (inactive) | > 100 µM (inactive) | > 100 µM (inactive) |
| COc1cc(N(C)C)c(OC)cc1/C=C\c1ccnc2ccccc12 | 6.38 µM (inactive) | 3.56 µM (inactive) | 2.26 µM (inactive) | 3.62 µM (inactive) | 3.09 µM (inactive) | 3.7 µM (inactive) | 4.94 µM (inactive) |  | 4.86 µM (inactive) | 1.72 µM (inactive) | 2.33 µM (inactive) | 0.815 µM (active) | > 10 µM (inactive) | 4.38 µM (inactive) | 3.25 µM (inactive) | 0.462 µM (active) | 2.8 µM (inactive) | 1.75 µM (inactive) | 2.56 µM (inactive) | 0.344 µM (active) |
| Cc1cc(=O)n2nc(CN3CCCCC3)sc2n1 | > 100 µM (inactive) | > 100 µM (inactive) | > 100 µM (inactive) | > 100 µM (inactive) | > 100 µM (inactive) | > 100 µM (inactive) | > 100 µM (inactive) |  | > 100 µM (inactive) | > 100 µM (inactive) | > 100 µM (inactive) | > 100 µM (inactive) | > 100 µM (inactive) | > 100 µM (inactive) | > 100 µM (inactive) | > 100 µM (inactive) | > 100 µM (inactive) | > 100 µM (inactive) | > 100 µM (inactive) | > 100 µM (inactive) |
| O=C(Sc1c(-c2ccccc2)c(=O)n(-c2ccccc2)c(=S)n1-c1ccccc1)c1ccco1 | > 100 µM (inactive) | 18.7 µM (inactive) | > 100 µM (inactive) | > 100 µM (inactive) | > 100 µM (inactive) | 21.5 µM (inactive) | > 100 µM (inactive) |  | > 69.5 µM (inactive) | 99.3 µM (inactive) | > 100 µM (inactive) | 97.9 µM (inactive) | > 100 µM (inactive) | > 76.9 µM (inactive) | > 73.5 µM (inactive) | > 100 µM (inactive) | > 100 µM (inactive) | > 100 µM (inactive) | > 100 µM (inactive) | > 100 µM (inactive) |
